Source: US20040132807A1, “Aurones as telomerase inhibitors” (priority 2001, published 2004)

The compounds below were run against T1, telomerase enzyme (Homo sapiens, UniProt O14746) (assay: Flash Plate-based telomerase activity assay). Conditions: two hours incubation at 37°, biotinylated oligo primer, radiolabeled probe, streptavidin flash plate; read-out: IC50 (telomerase inhibitory activity).
T1 construct: telomerase enzyme diluted in a buffer
Format: biochemical
Experimental: The telomerase activity of the compounds has been evaluated using a Flash Plate-based assay.
The assay mixture is constituted of:
telomerase enzyme diluted in a buffer, the composition of which has been selected to maintain the enzyme activity stable along the duration of the assay.
dNTPs, deoxynucleotides 5′-triphosphate.
biotinylated oligo as primer.
increasing concentrations of test compounds/positive control.
After two hours of incubation at 37° degrees the telomeric repeats added by telomerase are evaluated by hybridization in solution with a 3′-radioactive labeled short oligonucleotide probe. The extent of hybridization is then quantitated by transferring the reaction mixture in a streptavidin-coated flash plate, where the binding between biotin and streptavidin occurs. The telomerase activity is proportional to the radioactivity measured and the inhibitory activity of the compounds is evaluated as IC50 using the Sigma Plot fit program.
The IC50 values for the compounds of the present invention were determined according to the above-described method.

T1 sequence (O14746 whole entry): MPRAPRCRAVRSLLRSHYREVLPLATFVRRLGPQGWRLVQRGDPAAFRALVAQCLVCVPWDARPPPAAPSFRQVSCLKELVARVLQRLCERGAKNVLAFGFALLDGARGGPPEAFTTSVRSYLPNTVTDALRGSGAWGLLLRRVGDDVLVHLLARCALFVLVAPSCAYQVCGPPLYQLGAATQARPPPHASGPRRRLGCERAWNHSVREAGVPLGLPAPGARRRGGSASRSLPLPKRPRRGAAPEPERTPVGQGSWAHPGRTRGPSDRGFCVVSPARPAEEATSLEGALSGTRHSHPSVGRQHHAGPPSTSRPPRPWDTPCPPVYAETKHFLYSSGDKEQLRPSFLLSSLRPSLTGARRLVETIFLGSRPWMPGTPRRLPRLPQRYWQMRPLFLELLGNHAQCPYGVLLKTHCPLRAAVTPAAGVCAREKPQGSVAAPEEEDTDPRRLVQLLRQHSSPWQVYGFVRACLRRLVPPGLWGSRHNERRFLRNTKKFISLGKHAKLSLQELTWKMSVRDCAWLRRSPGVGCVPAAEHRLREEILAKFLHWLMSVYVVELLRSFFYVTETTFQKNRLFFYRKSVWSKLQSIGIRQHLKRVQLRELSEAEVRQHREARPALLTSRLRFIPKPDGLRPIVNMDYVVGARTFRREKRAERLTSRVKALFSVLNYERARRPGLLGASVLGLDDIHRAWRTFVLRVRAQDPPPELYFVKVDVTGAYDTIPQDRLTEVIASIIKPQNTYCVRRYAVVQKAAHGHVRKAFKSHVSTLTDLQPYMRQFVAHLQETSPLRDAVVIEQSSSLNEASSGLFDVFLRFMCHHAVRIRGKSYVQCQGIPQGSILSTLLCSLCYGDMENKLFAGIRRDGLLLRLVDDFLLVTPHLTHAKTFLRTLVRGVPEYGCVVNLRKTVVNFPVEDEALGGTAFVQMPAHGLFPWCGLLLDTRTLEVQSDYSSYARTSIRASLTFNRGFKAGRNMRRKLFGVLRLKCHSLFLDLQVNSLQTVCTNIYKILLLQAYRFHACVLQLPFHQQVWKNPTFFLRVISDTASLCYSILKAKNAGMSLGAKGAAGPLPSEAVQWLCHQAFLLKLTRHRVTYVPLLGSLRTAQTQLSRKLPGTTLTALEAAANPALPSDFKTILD

Row | SMILES | IC50 [µM]
1 | O=C1C(=Cc2ccc3c(c2)OCO3)Oc2c1ccc(O)c2O [Compound 2, 2-(1,3-benzodioxol-5-ylmethylene)-6,7-dihydroxy-1-benzofuran-3(2H)-one] | 13
2 | O=C1C(=Cc2ccc(Cl)c(Cl)c2)Oc2c1ccc(O)c2O [Compound 5, 2-(3,4-dichlorobenzylidene)-6,7-dihydroxy-1-benzofuran-3(2H)-one] | 8
3 | O=C1c2ccc(O)c(O)c2OC1Cc1ccc(O)c(O)c1 (stereo not drawn) [Compound 89, 2-(3,4-dihydroxybenzyl)-6,7-dihydroxy-1-benzofuran-3(2H)-one] | 7
4 | COc1ccc(C=C2Oc3c(ccc(O)c3O)C2=O)cc1OC [Compound 3, 2-(3,4-dimethoxybenzylidene)-6,7-dihydroxy-1-benzofuran-3(2H)-one] | 11

Stronger by IC50, values ahead:

Row | IC50 [µM] | SMILES
5 | 1.5 | O=C1C(=Cc2ccc(O)cc2O)Oc2c1ccc(O)c2O [Compound 4, 2-(2,4-dihydroxybenzylidene)-6,7-dihydroxy-1-benzofuran-3(2H)-one]
6 | 0.3 | O=C1C(=Cc2ccc(O)c(O)c2)Oc2c1ccc(O)c2O [Compound 1, 2-(3,4-dihydroxybenzylidene)-6,7-dihydroxy-1-benzofuran-3(2H)-one]
